One block for each compound: values may come before it.
Molecular target: T1, RORγ (Homo sapiens, UniProt P51449)
T1 construct: expressed in transfected cells; host or cells: HEK 293 cells, transiently transfected
T1 sequence (P51449 269-508 limits assumed): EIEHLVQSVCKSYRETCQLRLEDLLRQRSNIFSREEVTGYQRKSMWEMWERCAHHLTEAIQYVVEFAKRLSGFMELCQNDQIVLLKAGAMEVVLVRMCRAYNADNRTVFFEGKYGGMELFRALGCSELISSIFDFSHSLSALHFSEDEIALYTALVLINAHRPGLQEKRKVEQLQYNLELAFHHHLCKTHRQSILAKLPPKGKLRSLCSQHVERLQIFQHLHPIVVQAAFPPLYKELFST
Experiment: Reporter Gene Assay (RGA): inhibition of RORγ transactivation of a luciferase reporter in transiently transfected HEK 293 cells
Assay type: cell-based
Settings: HEK 293 cells cotransfected with pGL4.3 luc2P/GAL4UAS and pBIND Gal4DBD hRORC LBD; 20-24 h incubation; luciferase luminescence
Description: Reporter Gene Assay (RGA)
A nuclear receptor transactivation assay is performed to quantitate the ability of test compounds to inhibit RORγ transactivation of a luciferase reporter. A similar assay is described in: Khan et al., Bioorganic & Medicinal Chemistry Letters 23 (2013), 532-536. The system uses transiently transfected HEK 293 cells cotransfected with two plasmids (pGL4.3, luc2P/GAL4UAS/Hygro, and pBIND, Gal4DBD hRORC LBD1-3). The positive control is co-transiently transfected with both plasmids, and the negative control contains the pGL4.3 promoter sequence. Assays are assembled in 384 well plates where transiently transfected cells and test compound at varying concentrations are incubated for 20-24 h. The next day, assays plates are taken out and equilibrated at RT for 20-30 minutes. Bright-Glo™ Luciferase Assay System is used to detect Luciferase production. After addition of Bright GLO detection reagent, the plates are incubated at RT for 20 minutes. The plates are read on an Envision plate reader to measure luminescence signal. The RLU signal is converted to POC relative to control and blank wells.
Compound dilution buffer:
Bright Glo Luciferase Assay System: Promega #E2620
Thaw lysis buffer provided in kit, add 100 mL lysis buffer to substrate powder.

Structure (SMILES): CCS(=O)(=O)c1ccc(CNC(=O)N2CC(c3ccccc3)C(c3cc(C4CC4)nn3C)C2)cc1 (stereo not drawn) [Example 6]
IC50: 2600 nM

Structure (SMILES): CCS(=O)(=O)c1ccc(CNC(=O)N2CC(C(C)C)C3(C2)Oc2c(C(C)C)ccc(C)c2C3=O)cc1 (stereo not drawn) [Example 10]
IC50: 275 nM

Structure (SMILES): CCS(=O)(=O)c1ccc(CNC(=O)N2CC(C(C)C)C3(C2)Oc2c(C(C)C)ccc(C)c2C3=O)nc1 (stereo not drawn) [Example 11]
IC50: 620 nM

Structure (SMILES): CCS(=O)(=O)c1ccc(CNC(=O)N2CC(c3cccc(Cl)c3)C(c3nc(C(C)C)no3)C2)cc1 (stereo not drawn) [Example 13]
IC50: 19000 nM

Structure (SMILES): CCS(=O)(=O)c1ccc(CNC(=O)N2CC(c3ccccc3)C(c3ncccc3C(F)(F)F)C2)cc1 (stereo not drawn) [Example 14]
IC50: 1000 nM

Structure (SMILES): CCS(=O)(=O)c1ccc(CNC(=O)N2CC(c3ccccc3)C(c3cc(C)nn3C3CCCC3)C2)cc1 (stereo not drawn) [Example 15]
IC50: 565 nM

Structure (SMILES): CCS(=O)(=O)c1ccc(CNC(=O)N2CC(c3ccccc3)C(c3cc(C4CC4)nn3C(C)C)C2)cc1 (stereo not drawn) [Example 16A]
IC50: 625 nM

Structure (SMILES): CCS(=O)(=O)c1ccc(CNC(=O)N2C[C@H](c3ccccc3)[C@@H](c3cc(C4CC4)nn3C(C)C)C2)cc1 [Example 16B]
IC50: 925 nM

Structure (SMILES): CCS(=O)(=O)c1ccc(CNC(=O)N2C[C@@H](c3ccccc3)[C@H](c3cc(C4CC4)nn3C(C)C)C2)cc1 [Example 16C]
IC50: 1250 nM

Structure (SMILES): CNS(=O)(=O)c1ccc(CNC(=O)N2CC(c3ccccc3)C(c3cc(C4CC4)nn3C(C)C)C2)cc1 (stereo not drawn) [Example 17]
IC50: 2300 nM

Structure (SMILES): CCS(=O)(=O)c1ccc(CNC(=O)N2CC(c3ccccc3)C(c3nn(C(C)C)nc3C3CC3)C2)cc1 (stereo not drawn) [Example 19]
IC50: 4100 nM

Structure (SMILES): CCS(=O)(=O)c1ccc(CNC(=O)N2CC(c3ccccc3)C(c3nc(C(C)C)nn3C3CC3)C2)cc1 (stereo not drawn) [Example 21]
IC50: 7400 nM

Structure (SMILES): CCS(=O)(=O)c1ccc(CNC(=O)N2CC(c3ccccc3)C(c3nc(C4CC4)nn3C(C)C)C2)cc1 (stereo not drawn) [Example 22]
IC50: 8700 nM

Structure (SMILES): CCS(=O)(=O)c1ccc(CNC(=O)N2CC(c3ccccc3)C(c3nn(C(C)C)nc3C3CC3)C2)nc1 (stereo not drawn) [Example 23]
IC50: 6200 nM

Structure (SMILES): CCS(=O)(=O)c1cnc(CNC(=O)N2CC(c3ccccc3)C(c3cc(C4CC4)nn3C(C)C)C2)nc1 (stereo not drawn) [Example 24]
IC50: 13000 nM

Structure (SMILES): CCS(=O)(=O)c1ccc(CNC(=O)N2CC(c3ccccc3)C(c3cccc(OC(F)(F)F)c3)C2)cc1 (stereo not drawn) [Example 27]
IC50: 2400 nM

Structure (SMILES): CCS(=O)(=O)c1ccc(CNC(=O)N2CC(c3ccccc3)C(c3ccccc3OC(F)(F)F)C2)nc1 (stereo not drawn) [Example 29]
IC50: 830 nM

Structure (SMILES): CCS(=O)(=O)c1ccc(CNC(=O)N2CC(c3ccccc3)C(c3cccc(OC(F)(F)F)c3)C2)nc1 (stereo not drawn) [Example 30]
IC50: 5200 nM

Structure (SMILES): CCS(=O)(=O)c1ccc(CNC(=O)N2CC(c3ccccc3)C(c3cc(C4CC4)nn3CC3CC3)C2)nc1 (stereo not drawn) [Example 31]
IC50: 2200 nM

Structure (SMILES): CCS(=O)(=O)c1ccc(CNC(=O)N2CC(c3cccc(Cl)c3)C(c3cccc4cnccc34)C2)cc1 (stereo not drawn) [Example 32]
IC50: 1200 nM

Structure (SMILES): CNS(=O)(=O)c1ccc(CNC(=O)N2CC(c3ccccc3)C(c3cn(C(C)C)nc3C(C)(C)C)C2)cc1 (stereo not drawn) [Example 39]
IC50: 965 nM

Structure (SMILES): CCS(=O)(=O)c1ccc(CNC(=O)N2CC(c3ccccc3)C(c3cc(C(C)(C)C)nn3C(C)C)C2)nc1 (stereo not drawn) [Example 41]
IC50: 1450 nM

Structure (SMILES): CCS(=O)(=O)c1ccc(CNC(=O)N2CC(c3ccccc3)C3(C2)Oc2c(C(C)C)ccc(C)c2C3=O)cc1 (stereo not drawn) [Example 43]
IC50: 149 nM

Structure (SMILES): CCS(=O)(=O)c1ccc(CNC(=O)N2CC(c3ccccc3)C(c3cc(C(F)(F)F)cnc3OC)C2)cc1 (stereo not drawn) [Example 44]
IC50: 1150 nM

Structure (SMILES): CCS(=O)(=O)c1ccc(CNC(=O)N2CC(c3cccc(Cl)c3)C(c3ccccc3C(F)(F)F)C2)nc1 (stereo not drawn) [Example 47]
IC50: 1400 nM

Structure (SMILES): CCS(=O)(=O)c1ccc(CNC(=O)N2CC(c3cccc(Cl)c3)C(c3cc(C4CC4)nn3C(C)C)C2)cc1 (stereo not drawn) [Example 48]
IC50: 775 nM

Structure (SMILES): CCS(=O)(=O)c1ccc(CNC(=O)N2CC(c3cccc(Cl)c3)C(c3nc(C4CC4)nn3C(C)C)C2)nc1 (stereo not drawn) [Example 49]
IC50: 1750 nM

Structure (SMILES): CCS(=O)(=O)c1ccc(CNC(=O)N2CC(c3cccc(C4CC4)c3)C(c3cc(C4CC4)nn3C(C)C)C2)nc1 (stereo not drawn) [Example 52]
IC50: 1480 nM

Structure (SMILES): CCS(=O)(=O)c1ccc(CNC(=O)N2CC(c3cccc(C4CC4)n3)C(c3cc(C4CC4)nn3C(C)C)C2)nc1 (stereo not drawn) [Example 53]
IC50: 1550 nM

Structure (SMILES): CCS(=O)(=O)c1ccc(CNC(=O)N2CC(c3ccccc3)C(c3cc(C(F)(F)F)cn(C(C)C)c3=O)C2)cc1 (stereo not drawn) [Example 55]
IC50: 1500 nM

Structure (SMILES): CCS(=O)(=O)c1ccc(CNC(=O)N2CC(c3cccc(C4CC4)n3)C(c3cn(C4CC4)nc3C(C)(C)C)C2)cc1 (stereo not drawn) [Example 56]
IC50: 865 nM

Structure (SMILES): CCS(=O)(=O)c1ccc(CNC(=O)N2CC(c3cccc(C4CC4)n3)C(c3cn(C(C)C)nc3C(C)(C)C)C2)cc1 (stereo not drawn) [Example 57]
IC50: 1050 nM

Next, values leading:

IC50: 2400 nM
Structure (SMILES): CCS(=O)(=O)c1ccc(CNC(=O)N2CC(c3ccccc3)C(c3ccccc3)C2)cc1 (stereo not drawn) [Example 1]

IC50: 5000 nM
Structure (SMILES): CCS(=O)(=O)c1ccc(CNC(=O)N2CC(c3ccccc3)C(c3ccccc3)C2)nc1 (stereo not drawn) [Example 2]

IC50: 7900 nM
Structure (SMILES): CCS(=O)(=O)c1ccc(CNC(=O)N2CC(c3ccccc3)C(c3ccccc3)C2)cn1 (stereo not drawn) [Example 3]

IC50: 3900 nM
Structure (SMILES): CCS(=O)(=O)c1ccc(CNC(=O)N2CC(c3ccccc3)C(c3cc(C)nn3C)C2)cc1 (stereo not drawn) [Example 4]

IC50: 2800 nM
Structure (SMILES): CCS(=O)(=O)c1ccc(CNC(=O)N2CC(c3ccccc3)C(c3ncccc3C3CC3)C2)cc1 (stereo not drawn) [Example 5]

IC50: 1020 nM
Structure (SMILES): CCS(=O)(=O)c1ccc(CNC(=O)N2CC(c3ccccc3)C(c3csc4ccccc34)C2)cc1 (stereo not drawn) [Example 7]

IC50: 1750 nM
Structure (SMILES): CCn1nc(C2CC2)cc1C1CN(C(=O)NCc2ccc(S(=O)(=O)CC)cc2)CC1c1ccccc1 (stereo not drawn) [Example 8]

IC50: 1550 nM
Structure (SMILES): CCS(=O)(=O)c1ccc(CNC(=O)N2CC(c3ccccc3)C(c3cn(C)nc3C(C)(C)C)C2)cc1 (stereo not drawn) [Example 9]

IC50: 2100 nM
Structure (SMILES): CCS(=O)(=O)c1ccc(CNC(=O)N2CC(c3ccccc3)C(c3ccnn3-c3ccccc3)C2)cc1 (stereo not drawn) [Example 12]

IC50: 2500 nM
Structure (SMILES): CCS(=O)(=O)c1ccc(CNC(=O)N2CC(c3ccccc3)C(c3cc(C4CC4)nn3C(C)C)C2)nc1 (stereo not drawn) [Example 18]

IC50: 5500 nM
Structure (SMILES): CCS(=O)(=O)c1ccc(CNC(=O)N2CC(c3ccccc3)C(c3cc(C4CC4)nn3C(C)C)C2)cn1 (stereo not drawn) [Example 20]

IC50: 4900 nM
Structure (SMILES): CCS(=O)(=O)c1ccc(CNC(=O)N2CC(c3cccc(Cl)c3)C(c3nc(C4CC4)cs3)C2)cc1 (stereo not drawn) [Example 25]

IC50: 850 nM
Structure (SMILES): CCS(=O)(=O)c1ccc(CNC(=O)N2CC(c3ccccc3)C(c3ccccc3OC(F)(F)F)C2)cc1 (stereo not drawn) [Example 26]

IC50: 1060 nM
Structure (SMILES): CCS(=O)(=O)c1ccc(CNC(=O)N2CC(c3ccccc3)C(c3cc(C4CC4)nn3CC3CC3)C2)cc1 (stereo not drawn) [Example 28]

IC50: 510 nM
Structure (SMILES): CCS(=O)(=O)c1ccc(CNC(=O)N2CC(c3ccccc3)C(c3cn(C4CC4)nc3C(C)(C)C)C2)cc1 (stereo not drawn) [Example 33]

IC50: 1300 nM
Structure (SMILES): CNS(=O)(=O)c1ccc(CNC(=O)N2CC(c3ccccc3)C(c3cn(C4CC4)nc3C(C)(C)C)C2)cc1 (stereo not drawn) [Example 34]

IC50: 1900 nM
Structure (SMILES): CCS(=O)(=O)c1ccc(CNC(=O)N2CC(c3ccccc3)C(c3cn(C4CC4)nc3C(C)(C)C)C2)nc1 (stereo not drawn) [Example 35]

IC50: 2600 nM
Structure (SMILES): CCS(=O)(=O)c1ccc(CNC(=O)N2CC(c3ccccc3)C(c3nc(C4CC4)nn3C(C)(C)C)C2)cc1 (stereo not drawn) [Example 36]

IC50: 440 nM
Structure (SMILES): CCS(=O)(=O)c1ccc(CNC(=O)N2CC(c3ccccc3)C(c3cn(C(C)C)nc3C(C)(C)C)C2)cc1 (stereo not drawn) [Example 37]

IC50: 780 nM
Structure (SMILES): CCS(=O)(=O)c1ccc(CNC(=O)N2CC(c3ccccc3)C(c3cc(C(C)(C)C)nn3C(C)C)C2)cc1 (stereo not drawn) [Example 38]

IC50: 1300 nM
Structure (SMILES): CCS(=O)(=O)c1ccc(CNC(=O)N2CC(c3ccccc3)C(c3cn(C(C)C)nc3C(C)(C)C)C2)nc1 (stereo not drawn) [Example 40]

IC50: 1950 nM
Structure (SMILES): CCS(=O)(=O)c1ccc(CNC(=O)N2CC(c3ccccc3)C(c3nc(C(C)C)nn3C(C)(C)C)C2)cc1 (stereo not drawn) [Example 42]

IC50: 260 nM
Structure (SMILES): CCS(=O)(=O)c1ccc(CNC(=O)N2CC(c3ccccc3)C3(C2)Oc2c(C(C)C)ccc(C)c2C3=O)nc1 (stereo not drawn) [Example 45]

IC50: 3200 nM
Structure (SMILES): CCS(=O)(=O)c1ccc(CNC(=O)N2CC(c3cc(C)cc(C)n3)C(c3cc(C4CC4)nn3C(C)C)C2)nc1 (stereo not drawn) [Example 46]

IC50: 5200 nM
Structure (SMILES): CCS(=O)(=O)c1cnc(CNC(=O)N2CC(c3cccc(C4CC4)n3)C(c3cc(C4CC4)nn3C(C)C)C2)nc1 (stereo not drawn) [Example 54]

Source: US10954215B2, “Compounds as modulators of ROR gamma” (Boehringer Ingelheim International GmbH, priority 2016, dated 2021)
